# Counter-ions that a name gives are not always drawn. Activity calls are given as the source filed them.
# Columns and labels:
# [1] = Luminescence-based cell-based high throughput dose response assay to identify activators of the DAF-12 from the parasite S. stercoralis (ssDAF-12).; assay type: functional
# [2] = target: T1, Oxysterols receptor LXR-beta (Homo sapiens, UniProt P55055); test: LXR agonists, Gal4 luciferase reporter, dose response, counter-screen for ssDAF-12 agonist project, cell-based, luminescence, HEK293, S. stercoralis campaign (AID 720737); assay type: functional; conditions: read-out: IC50 (the source's name)
# T1 sequence (P55055 whole entry): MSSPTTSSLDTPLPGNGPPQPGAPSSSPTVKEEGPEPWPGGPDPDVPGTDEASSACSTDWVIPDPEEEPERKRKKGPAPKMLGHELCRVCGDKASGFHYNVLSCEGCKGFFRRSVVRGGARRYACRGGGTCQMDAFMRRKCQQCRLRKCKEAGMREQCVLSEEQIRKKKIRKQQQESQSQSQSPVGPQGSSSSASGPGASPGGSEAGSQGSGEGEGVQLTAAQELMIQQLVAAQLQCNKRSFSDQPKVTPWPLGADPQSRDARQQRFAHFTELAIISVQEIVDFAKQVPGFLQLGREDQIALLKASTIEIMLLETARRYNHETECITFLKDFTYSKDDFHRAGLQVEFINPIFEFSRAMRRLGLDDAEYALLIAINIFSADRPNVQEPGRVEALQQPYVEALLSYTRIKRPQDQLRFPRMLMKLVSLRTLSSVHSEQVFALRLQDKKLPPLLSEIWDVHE
# [3] = target: T1, Oxysterols receptor LXR-beta; assay type: functional, cell-based
# Protein skinhead-1 = target: T2, Protein skinhead-1 (Caenorhabditis elegans, UniProt P34707); assay type: functional
# T2 sequence (P34707 whole entry): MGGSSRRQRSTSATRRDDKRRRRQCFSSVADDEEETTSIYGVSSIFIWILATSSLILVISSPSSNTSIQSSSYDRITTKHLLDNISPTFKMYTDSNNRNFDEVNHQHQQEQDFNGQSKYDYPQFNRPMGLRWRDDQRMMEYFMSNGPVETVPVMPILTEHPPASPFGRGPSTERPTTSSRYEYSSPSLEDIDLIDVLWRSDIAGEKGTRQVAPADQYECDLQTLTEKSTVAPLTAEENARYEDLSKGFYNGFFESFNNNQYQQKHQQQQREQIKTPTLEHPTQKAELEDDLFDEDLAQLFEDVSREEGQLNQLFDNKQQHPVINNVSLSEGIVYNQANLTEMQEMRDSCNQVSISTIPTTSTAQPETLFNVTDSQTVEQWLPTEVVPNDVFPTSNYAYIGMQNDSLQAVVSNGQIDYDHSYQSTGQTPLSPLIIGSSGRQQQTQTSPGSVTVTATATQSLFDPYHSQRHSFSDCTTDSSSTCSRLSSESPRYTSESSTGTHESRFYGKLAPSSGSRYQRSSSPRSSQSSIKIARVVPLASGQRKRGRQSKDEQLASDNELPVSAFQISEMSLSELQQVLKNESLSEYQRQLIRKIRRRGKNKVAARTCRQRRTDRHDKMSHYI
# Paired box protein Pax-8 = Paired box protein Pax-8 (Homo sapiens, UniProt Q06710); test: inhibitors of PAX8-driven TPO luciferase reporter, dose response, RMG-I cells, cherry-pick (AID 687027); assay type: functional, cell-based;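 also: luciferase reporter driven by Pax8 target thyroperoxidase promoter measured by SteadyGlo luminescence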
# [4] = HeLa 2N DNA content increase, dose response, cell-based, IC50 (AID 1117349); assay type: functional
# [5] = HeLa 4N DNA content increase, dose response, cell-based, IC50 (AID 1117351); assay type: functional
# Large T antigen = Large T antigen (Simian virus 40, UniProt P03070); assay type: functional, Betapolyomavirus macacae;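 also: Confirmatory-stage PubChem screen for compounds that inhibit SV40 T antigen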
# [6] = target: Glucose-6-phosphate 1-dehydrogenase (Homo sapiens, UniProt P11413); test: human G6PD enzyme inhibitors, dose response, selectivity assay for P. falciparum G6PD inhibitor project, biochemical, fluorescence (AID 504792); assay type: functional
# Genome polyprotein = Genome polyprotein (dengue virus type 2, UniProt P29990); test: Dengue-2 NS5 methyltransferase inhibitors, primary screen, biochemical, confirmation dose response (AID 588689); assay type: functional
# Caspase-6 = target: T3, Caspase-6 (Homo sapiens, UniProt P55212); test: human caspase-6 inhibitors, dose response, biochemical, VEID-R110 fluorescence, cherry-pick (AID 720632)
# T3 sequence (P55212 whole entry): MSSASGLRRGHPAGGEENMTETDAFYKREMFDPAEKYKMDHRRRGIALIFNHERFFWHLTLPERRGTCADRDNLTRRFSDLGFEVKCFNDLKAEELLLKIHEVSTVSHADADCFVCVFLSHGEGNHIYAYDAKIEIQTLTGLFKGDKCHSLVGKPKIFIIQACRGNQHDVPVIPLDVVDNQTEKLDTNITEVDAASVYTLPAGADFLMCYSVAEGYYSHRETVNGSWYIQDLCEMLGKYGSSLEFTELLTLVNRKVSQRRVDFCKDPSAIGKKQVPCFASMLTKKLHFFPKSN
# [7] = target: T4, Histone-lysine N-methyltransferase NSD2 (Homo sapiens, UniProt O96028); assay type: biochemical
# T4 sequence (O96028 whole entry): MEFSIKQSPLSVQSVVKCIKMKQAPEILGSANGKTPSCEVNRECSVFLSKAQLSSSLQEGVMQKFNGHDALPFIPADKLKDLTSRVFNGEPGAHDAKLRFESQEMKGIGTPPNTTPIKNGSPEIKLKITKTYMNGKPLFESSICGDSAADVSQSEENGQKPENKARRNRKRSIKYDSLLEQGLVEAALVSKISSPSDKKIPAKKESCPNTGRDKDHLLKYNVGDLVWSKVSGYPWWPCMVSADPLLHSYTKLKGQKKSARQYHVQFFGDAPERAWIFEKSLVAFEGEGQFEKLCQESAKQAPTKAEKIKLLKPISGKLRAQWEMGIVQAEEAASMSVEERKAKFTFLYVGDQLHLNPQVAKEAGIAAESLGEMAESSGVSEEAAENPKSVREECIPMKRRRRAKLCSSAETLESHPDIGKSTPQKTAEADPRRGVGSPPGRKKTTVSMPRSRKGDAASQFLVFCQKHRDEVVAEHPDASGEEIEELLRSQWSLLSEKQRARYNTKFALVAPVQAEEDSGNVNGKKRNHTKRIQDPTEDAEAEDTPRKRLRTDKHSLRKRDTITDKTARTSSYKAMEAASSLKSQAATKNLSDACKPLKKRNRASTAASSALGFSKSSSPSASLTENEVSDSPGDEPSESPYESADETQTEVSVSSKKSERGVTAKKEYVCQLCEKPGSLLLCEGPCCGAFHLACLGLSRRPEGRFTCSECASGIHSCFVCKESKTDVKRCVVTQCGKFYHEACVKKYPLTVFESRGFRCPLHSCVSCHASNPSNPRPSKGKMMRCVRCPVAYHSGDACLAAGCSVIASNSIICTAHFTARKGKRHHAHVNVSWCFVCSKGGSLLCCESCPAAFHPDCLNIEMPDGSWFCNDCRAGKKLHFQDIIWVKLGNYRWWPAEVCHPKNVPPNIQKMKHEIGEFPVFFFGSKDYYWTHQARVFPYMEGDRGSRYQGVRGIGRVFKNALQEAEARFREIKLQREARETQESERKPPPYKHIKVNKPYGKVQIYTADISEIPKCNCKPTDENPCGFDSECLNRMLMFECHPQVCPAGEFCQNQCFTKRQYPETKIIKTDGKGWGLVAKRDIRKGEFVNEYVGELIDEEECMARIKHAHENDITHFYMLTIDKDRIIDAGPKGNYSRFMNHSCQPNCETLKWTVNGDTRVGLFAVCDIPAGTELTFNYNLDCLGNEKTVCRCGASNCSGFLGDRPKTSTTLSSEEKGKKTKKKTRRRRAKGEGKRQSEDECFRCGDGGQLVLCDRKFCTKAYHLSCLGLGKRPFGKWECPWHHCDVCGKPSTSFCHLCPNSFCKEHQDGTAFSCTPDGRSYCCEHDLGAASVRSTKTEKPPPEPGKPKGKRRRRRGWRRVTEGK
# Protein Tat = target: T5, Protein Tat (Human immunodeficiency virus type 1 group M subtype B (isolate HXB2)(HIV-1), UniProt P04608); assay type: functional;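 also: tat binding to TAR RNA read out by fluorescence polarization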
# T5 sequence (P04608 whole entry): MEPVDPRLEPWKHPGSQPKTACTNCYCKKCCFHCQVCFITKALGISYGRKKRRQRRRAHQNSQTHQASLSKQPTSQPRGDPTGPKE
# [8] = THP-1 cell cytotoxicity, dose response, cytotoxicity control for Vif-APOBEC3G degradation inhibitor project, THP-1 cells (AID 1117359); assay type: functional; conditions: Human immunodeficiency virus 1, THP-1
# [9] = NIH:OVCAR-3 ovarian cancer cell cytotoxicity, dose response, PAX8 inhibitor project, plate reader, dry powder samples (AID 743044); assay type: functional, cell-based
# [10] = cytotoxicity in OVCAR8 ovarian cancer cells, dose response, PAX8 project, cell-based, plate reader, dry powder samples (AID 743197); assay type: functional; conditions: OVCAR-8
# [11] = NIH-3T3 fibroblast cytotoxicity, dose response, cytotoxicity control, cell-based, fluorescence, Alamar Blue, secondary assay (AID 2327); assay type: functional;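 also: NIH-3T3 mouse fibroblasts cultured with fluconazole at 8 µg/mL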
# [12] = system: Streptococcus sp. 'group A'; test: growth inhibition of control SK(-) GAS strain, dose response, counter-screen for streptokinase expression inhibitor project, luminescence, kanamycin, BacTiterGlo, confirmation (AID 1900); assay type: functional, organism-based
# [13] = target: T6, Heat shock factor protein 1 (Mus musculus, UniProt P38532); test: inhibition of MG132-induced HSE-luciferase signal, confirmation, cell-based, NIH3T3, luminescence, dose retest (AID 2382); assay type: functional;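 also: NIH3T3 fibroblasts with HSF1-driven luciferase reporter stressed by proteasome inhibitor MG132; luminescence from HSF1-driven luciferase expression after 8 hours of MG132 stress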
# T6 sequence (P38532 whole entry): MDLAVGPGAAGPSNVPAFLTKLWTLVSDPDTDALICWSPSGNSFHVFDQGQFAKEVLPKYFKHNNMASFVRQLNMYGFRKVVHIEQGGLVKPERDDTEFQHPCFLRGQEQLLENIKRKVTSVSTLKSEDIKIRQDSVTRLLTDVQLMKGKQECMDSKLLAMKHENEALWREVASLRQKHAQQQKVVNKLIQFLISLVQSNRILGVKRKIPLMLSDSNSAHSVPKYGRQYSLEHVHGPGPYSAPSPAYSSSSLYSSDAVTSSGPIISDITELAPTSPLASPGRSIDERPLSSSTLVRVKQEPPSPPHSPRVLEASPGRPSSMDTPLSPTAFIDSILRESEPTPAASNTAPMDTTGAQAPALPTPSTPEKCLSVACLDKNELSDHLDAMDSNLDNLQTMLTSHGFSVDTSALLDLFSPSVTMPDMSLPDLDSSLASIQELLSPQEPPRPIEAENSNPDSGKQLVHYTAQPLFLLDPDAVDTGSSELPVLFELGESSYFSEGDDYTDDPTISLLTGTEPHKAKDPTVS
# Streptokinase A = target: T7, Streptokinase A (Streptococcus pyogenes serotype M1, UniProt P10520); test: S. pyogenes streptokinase expression inhibitors, potency, dose response, plasminogen activation absorbance, OD405 (AID 1914); assay type: functional, Streptococcus pyogenes M1 GAS;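 also: secreted streptokinase activity via plasminogen activation per viability signal from cell pellet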
# T7 sequence (P10520 whole entry): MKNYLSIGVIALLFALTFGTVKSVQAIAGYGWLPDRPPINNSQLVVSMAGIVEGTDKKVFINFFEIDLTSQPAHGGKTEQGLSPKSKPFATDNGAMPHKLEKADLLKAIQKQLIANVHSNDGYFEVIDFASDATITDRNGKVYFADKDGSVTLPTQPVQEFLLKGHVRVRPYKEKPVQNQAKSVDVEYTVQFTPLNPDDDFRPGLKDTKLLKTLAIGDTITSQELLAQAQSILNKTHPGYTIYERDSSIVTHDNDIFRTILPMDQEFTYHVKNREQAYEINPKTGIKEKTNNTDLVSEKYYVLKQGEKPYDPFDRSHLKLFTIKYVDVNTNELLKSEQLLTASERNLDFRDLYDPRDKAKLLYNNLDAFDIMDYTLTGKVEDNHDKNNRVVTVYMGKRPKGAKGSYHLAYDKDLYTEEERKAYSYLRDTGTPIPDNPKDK
# [14] = C. albicans growth with fluconazole, confirmation, fluorescence, retest (AID 2467); assay type: functional, cell-based
# Streptococcus = test: Group A Streptococcus viability loss, dose response, counter-screen for streptokinase expression inhibitor project, luminescence, BacTiterGlo (AID 1915); assay type: functional, organism-based;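 also: potency for reduction of bacterial viability or growth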
# Chain of Paired box protein Pax-8 (Q06710 whole entry): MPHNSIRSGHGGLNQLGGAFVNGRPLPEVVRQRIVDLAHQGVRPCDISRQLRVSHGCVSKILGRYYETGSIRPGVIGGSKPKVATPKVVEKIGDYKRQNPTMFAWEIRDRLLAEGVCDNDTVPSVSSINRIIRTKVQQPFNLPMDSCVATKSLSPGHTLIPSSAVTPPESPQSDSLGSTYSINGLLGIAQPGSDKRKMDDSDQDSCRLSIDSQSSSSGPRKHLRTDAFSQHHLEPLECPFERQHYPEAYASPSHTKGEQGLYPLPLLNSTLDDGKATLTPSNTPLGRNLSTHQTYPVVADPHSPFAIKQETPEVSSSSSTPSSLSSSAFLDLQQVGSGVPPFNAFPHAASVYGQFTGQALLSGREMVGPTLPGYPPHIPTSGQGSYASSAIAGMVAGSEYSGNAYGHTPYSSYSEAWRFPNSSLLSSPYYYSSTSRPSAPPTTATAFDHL
# Chain of Genome polyprotein (P29990 2492-3391 limits assumed): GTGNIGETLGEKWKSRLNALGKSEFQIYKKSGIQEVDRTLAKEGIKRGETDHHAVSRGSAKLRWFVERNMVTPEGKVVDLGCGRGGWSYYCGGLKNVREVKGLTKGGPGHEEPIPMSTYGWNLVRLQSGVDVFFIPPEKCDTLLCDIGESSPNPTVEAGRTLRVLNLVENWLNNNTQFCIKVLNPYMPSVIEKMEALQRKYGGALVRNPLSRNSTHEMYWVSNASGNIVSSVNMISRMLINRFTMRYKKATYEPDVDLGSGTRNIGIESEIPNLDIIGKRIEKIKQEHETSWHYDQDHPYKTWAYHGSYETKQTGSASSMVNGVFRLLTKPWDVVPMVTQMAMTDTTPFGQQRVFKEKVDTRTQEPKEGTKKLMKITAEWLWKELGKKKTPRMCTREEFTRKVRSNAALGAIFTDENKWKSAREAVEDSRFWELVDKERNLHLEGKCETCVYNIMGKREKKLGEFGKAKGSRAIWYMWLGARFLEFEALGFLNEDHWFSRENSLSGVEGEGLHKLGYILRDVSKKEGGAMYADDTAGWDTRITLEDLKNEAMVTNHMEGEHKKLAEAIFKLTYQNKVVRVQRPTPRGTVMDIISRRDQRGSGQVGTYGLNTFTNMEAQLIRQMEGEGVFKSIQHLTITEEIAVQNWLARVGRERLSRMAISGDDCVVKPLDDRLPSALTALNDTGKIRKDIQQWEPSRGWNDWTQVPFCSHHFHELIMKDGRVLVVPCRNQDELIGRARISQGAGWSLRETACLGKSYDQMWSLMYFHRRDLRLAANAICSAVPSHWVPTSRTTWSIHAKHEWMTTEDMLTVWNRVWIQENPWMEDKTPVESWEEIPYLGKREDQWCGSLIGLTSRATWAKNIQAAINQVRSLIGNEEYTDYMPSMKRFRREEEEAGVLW
# Chain of Glucose-6-phosphate 1-dehydrogenase (P11413 whole entry): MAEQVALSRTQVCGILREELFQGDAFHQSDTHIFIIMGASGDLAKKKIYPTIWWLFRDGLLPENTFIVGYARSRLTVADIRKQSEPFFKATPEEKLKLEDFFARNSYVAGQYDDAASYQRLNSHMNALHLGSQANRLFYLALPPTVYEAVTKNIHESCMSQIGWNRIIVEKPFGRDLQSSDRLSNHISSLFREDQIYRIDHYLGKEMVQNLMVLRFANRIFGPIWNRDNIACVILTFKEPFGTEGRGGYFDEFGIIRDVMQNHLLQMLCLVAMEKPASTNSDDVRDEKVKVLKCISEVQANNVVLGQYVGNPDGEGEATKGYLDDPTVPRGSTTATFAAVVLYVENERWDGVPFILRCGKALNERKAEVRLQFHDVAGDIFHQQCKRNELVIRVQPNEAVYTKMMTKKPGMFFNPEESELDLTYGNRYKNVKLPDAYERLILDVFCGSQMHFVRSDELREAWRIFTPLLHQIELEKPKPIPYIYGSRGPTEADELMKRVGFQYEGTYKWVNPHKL
# Chain of Large T antigen (P03070 whole entry): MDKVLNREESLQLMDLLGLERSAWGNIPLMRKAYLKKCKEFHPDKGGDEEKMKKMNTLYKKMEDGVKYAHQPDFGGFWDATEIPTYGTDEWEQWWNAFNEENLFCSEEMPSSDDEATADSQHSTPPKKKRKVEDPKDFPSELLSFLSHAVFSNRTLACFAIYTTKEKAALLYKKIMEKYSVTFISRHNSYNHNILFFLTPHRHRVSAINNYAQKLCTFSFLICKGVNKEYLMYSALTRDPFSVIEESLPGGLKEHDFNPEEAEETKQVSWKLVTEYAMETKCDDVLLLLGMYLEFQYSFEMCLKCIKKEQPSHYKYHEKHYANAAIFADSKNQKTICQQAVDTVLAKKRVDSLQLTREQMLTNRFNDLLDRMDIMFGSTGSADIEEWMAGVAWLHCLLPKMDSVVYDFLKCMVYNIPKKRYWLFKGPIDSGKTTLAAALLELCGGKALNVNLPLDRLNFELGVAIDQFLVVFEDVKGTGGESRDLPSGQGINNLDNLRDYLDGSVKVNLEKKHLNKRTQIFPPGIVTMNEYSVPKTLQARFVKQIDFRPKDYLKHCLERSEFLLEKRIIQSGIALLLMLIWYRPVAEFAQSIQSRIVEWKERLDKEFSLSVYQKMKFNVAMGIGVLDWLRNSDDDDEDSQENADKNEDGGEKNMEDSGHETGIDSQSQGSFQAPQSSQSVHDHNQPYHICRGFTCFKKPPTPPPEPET
compound,measurement,setting,value
Fc1ccc(-c2nc3n(n2)Cc2ccccc2-3)cc1,IC50,[1],> 67.6 µM (inactive)
same,EC50,[2],> 67.6 µM (inactive)
same,EC50,[3],> 67.6 µM (inactive)
same,EC50,cells,> 67.6 µM (inactive)
O=C(/C=C/c1cccs1)N1CCc2ccccc21,IC50,Protein skinhead-1,> 100 µM (inactive)
same,IC50,[1],> 67.5 µM (inactive)
same,EC50,[2],> 67.5 µM (inactive)
same,EC50,[3],> 67.5 µM (inactive)
same,EC50,cells,> 67.5 µM (inactive)
O=C(O)c1cccc(N2C(=O)c3ccc(C(=O)c4cccc([N+](=O)[O-])c4)cc3C2=O)c1,IC50,[1],> 67.5 µM (inactive)
same,EC50,[2],> 67.5 µM (inactive)
CN(C)N=Nc1[nH]cnc1C(N)=O,AC50,Paired box protein Pax-8,5.34 µM (active)
same,IC50,[4],> 10 µM (inactive)
same,IC50,[5],> 10 µM (inactive)
O=C1NC(=O)N(c2ccccc2)C(=O)/C1=C/c1ccc([N+](=O)[O-])s1,IC50,Large T antigen,59.3 µM (active)
same,IC50,[6],76.7 µM (inactive)
same,IC50,Genome polyprotein,20.4 µM (active)
same,AC50,Caspase-6,33.3 µM (active)
same,AC50,[7],> 20 µM (inactive)
CC(C)(C)OC(=O)N(Cc1ccccc1)Cc1cccc(OCc2cccc(NC(=O)c3ccccc3)c2)c1,IC50,Protein Tat,> 100 µM (active)
same,CC50,[8],> 40 µM (active)
COc1ccccc1NC(=O)N1CCCCN2[C@H](C1)[C@@H](c1ccc(-c3cccc(C#N)c3)cc1)[C@@H]2CO,AC50,Paired box protein Pax-8,11.6 µM (active)
same,AC50,[9],23.2 µM (active)
same,AC50,[10],> 70 µM (inactive)
CC(=O)[C@]1(O)Cc2c(O)c3c(c(O)c2[C@@H](O[C@H]2C[C@H](N)[C@H](O)[C@H](C)O2)C1)C(=O)c1ccccc1C3=O [IDARUBICIN HYDROCHLORIDE],EC50,[11],0.178 µM (inconclusive)
same,EC50,[12],1.07 µM (active)
same,EC50,[13],3.01 µM (inconclusive)
same,EC50,Streptokinase A,> 150 µM (not active)
same,EC50,[14],> 38 µM (not active)
same,EC50,Streptococcus,2.6 µM (active)
same,IC50,[4],0.0111 µM (active)
same,IC50,[5],> 10 µM (inactive)

# Source: ChEMBL document CHEMBL1201862, “PubChem BioAssay data set” (2004)
